From patent US20240360165A1, “INHIBITORS OF CYCLIN DEPENDENT KINASE 7 (CDK7)” (Syros Pharmaceuticals, Inc., priority 2016, published 2024)
Read-outs that look alike come from different tables or passages of the source.

Experiments:
[1] = test system: A673 cells; test: Inhibition of proliferation of A673 cells (CyQUANT, 72 hour); assay type: cell-based, human; conditions: A673 cells, 72 hour, CyQUANT, read-out: Inhibition of Proliferation of A673 Cells (calculated IC50)
Outline: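 Human Ewing's sarcoma A673 cells in DMEM with 10% FBS and 1 mM sodium pyruvate, 37° C, 5% CO2, treated 72 h with compound from 4 μM to […] (0.5 log dilutions). Antiproliferative effect read by CyQUANT assay.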

[2] = target: CDK9/Cyclin T1 complex (Homo sapiens, UniProt P50750); test: CDK9 inhibition assay (Caliper/LabChip EZ Reader kinase assay); assay type: biochemical; conditions: Table 1; CDK9/Cyclin T1 8 nM, ATP 2 mM, 15 min at 27° C.
CDK9/Cyclin T1 complex, sequence (P50750 whole entry, species assumed): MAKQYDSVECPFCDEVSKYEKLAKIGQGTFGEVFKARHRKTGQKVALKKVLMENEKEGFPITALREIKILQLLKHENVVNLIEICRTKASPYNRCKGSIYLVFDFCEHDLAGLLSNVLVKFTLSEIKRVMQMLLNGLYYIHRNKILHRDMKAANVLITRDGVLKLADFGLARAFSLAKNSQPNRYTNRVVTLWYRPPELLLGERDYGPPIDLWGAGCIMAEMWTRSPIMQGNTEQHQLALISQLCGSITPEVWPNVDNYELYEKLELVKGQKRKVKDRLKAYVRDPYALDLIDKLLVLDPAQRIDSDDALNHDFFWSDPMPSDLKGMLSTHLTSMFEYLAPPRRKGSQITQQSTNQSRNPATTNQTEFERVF
CDK9/Cyclin T1 complex, sequence (O60563 whole entry partner, species assumed): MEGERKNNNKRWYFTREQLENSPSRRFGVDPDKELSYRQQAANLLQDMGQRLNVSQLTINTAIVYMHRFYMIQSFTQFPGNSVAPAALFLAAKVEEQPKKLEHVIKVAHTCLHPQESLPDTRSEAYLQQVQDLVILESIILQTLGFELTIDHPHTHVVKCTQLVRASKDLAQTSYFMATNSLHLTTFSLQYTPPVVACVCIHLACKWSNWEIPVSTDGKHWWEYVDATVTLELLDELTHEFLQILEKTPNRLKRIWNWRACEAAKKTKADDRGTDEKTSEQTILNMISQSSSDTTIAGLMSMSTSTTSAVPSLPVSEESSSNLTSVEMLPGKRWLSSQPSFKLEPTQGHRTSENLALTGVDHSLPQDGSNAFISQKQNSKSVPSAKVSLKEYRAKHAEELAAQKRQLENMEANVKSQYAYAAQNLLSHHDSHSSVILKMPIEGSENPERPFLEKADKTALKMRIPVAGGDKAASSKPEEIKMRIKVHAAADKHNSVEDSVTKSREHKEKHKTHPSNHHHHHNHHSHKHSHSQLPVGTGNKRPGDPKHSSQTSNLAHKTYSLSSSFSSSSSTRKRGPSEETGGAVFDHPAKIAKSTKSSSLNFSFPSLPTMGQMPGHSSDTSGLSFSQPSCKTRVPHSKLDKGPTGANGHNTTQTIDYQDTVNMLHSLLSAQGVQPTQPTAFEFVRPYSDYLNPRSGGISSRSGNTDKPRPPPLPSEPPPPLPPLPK
Outline: (§1)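 Caliper/LabChip EZ Reader mobility-shift assays. CDK9/Cyclin T1 at 8 nM with 2 μM 5-FAM-CDK9tide peptide and 10 mM MgCl2; CDK2/Cyclin E1 at 0.5 nM with 2 μM 5-FAM-CDK7tide and 2 mM MgCl2.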

[3] = target: T1, CDK12 (aa686-1082)/Cyclin K complex (Homo sapiens, UniProt Q9NYV4); test: CDK12 inhibition assay (Caliper/LabChip EZ Reader kinase assay); assay type: biochemical; conditions: Table 1; CDK12 (aa686-1082)/Cyclin K 50 nM, ATP 2 mM, 3 hr at 27° C.
T1 construct: CDK12 (aa686-1082)/Cyclin K complex
T1 sequence (Q9NYV4 686-1082, species assumed): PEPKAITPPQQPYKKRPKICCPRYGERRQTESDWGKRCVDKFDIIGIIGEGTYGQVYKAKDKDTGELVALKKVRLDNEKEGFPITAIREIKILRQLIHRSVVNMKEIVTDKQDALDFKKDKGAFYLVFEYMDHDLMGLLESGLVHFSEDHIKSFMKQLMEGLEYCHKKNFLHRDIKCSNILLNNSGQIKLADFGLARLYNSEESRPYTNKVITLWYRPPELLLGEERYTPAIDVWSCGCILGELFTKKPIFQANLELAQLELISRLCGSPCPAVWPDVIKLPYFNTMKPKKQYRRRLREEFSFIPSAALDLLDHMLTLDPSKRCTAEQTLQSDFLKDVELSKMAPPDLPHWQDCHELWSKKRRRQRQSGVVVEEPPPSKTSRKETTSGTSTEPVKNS
T1 sequence (O75909 whole entry partner, species assumed, the tested form may be a part): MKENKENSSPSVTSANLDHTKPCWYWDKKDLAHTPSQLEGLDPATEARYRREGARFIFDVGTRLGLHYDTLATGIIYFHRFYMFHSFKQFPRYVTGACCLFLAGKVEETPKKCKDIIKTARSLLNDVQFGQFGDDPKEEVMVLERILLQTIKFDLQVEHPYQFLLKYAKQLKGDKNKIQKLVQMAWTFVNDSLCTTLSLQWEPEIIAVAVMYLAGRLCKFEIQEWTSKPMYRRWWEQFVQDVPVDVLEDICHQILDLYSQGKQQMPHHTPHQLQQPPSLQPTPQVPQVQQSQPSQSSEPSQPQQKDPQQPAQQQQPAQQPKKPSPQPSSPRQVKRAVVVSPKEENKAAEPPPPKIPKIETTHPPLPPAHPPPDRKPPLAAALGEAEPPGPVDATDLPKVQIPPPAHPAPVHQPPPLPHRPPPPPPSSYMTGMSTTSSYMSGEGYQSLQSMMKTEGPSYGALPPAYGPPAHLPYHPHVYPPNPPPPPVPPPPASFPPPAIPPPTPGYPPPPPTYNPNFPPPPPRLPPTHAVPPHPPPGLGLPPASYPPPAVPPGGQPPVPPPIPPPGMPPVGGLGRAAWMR

[4] = target: CDK7/Cyclin H/MAT1 complex (Homo sapiens, UniProt P50613); test: CDK7 inhibition assay (Caliper/LabChip EZ Reader kinase assay); assay type: biochemical; conditions: Table 1; CDK7/Cyclin H/MAT1 6 nM, ATP 2 mM, 35 min at 27° C.
CDK7/Cyclin H/MAT1 complex, sequence (P50613 whole entry, species assumed): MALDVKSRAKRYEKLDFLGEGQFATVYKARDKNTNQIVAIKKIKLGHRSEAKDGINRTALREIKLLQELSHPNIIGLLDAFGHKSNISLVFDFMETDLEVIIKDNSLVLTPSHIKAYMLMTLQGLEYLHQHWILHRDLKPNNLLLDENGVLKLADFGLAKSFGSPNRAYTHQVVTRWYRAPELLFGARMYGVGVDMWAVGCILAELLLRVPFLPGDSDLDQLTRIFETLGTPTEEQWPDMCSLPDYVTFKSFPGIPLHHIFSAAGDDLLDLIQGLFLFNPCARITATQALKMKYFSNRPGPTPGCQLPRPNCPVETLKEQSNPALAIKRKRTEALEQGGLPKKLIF
CDK7/Cyclin H/MAT1 complex, sequence (P51946 whole entry partner, species assumed): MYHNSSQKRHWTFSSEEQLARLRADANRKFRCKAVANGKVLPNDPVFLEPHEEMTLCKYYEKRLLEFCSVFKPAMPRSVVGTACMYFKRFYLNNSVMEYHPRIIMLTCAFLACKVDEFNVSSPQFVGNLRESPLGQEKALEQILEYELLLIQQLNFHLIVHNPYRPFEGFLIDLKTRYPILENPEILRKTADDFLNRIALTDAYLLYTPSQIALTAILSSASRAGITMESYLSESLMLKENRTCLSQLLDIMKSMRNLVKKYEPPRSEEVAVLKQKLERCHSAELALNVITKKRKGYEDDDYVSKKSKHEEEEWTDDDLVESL
CDK7/Cyclin H/MAT1 complex, sequence (P51948 whole entry partner, species assumed): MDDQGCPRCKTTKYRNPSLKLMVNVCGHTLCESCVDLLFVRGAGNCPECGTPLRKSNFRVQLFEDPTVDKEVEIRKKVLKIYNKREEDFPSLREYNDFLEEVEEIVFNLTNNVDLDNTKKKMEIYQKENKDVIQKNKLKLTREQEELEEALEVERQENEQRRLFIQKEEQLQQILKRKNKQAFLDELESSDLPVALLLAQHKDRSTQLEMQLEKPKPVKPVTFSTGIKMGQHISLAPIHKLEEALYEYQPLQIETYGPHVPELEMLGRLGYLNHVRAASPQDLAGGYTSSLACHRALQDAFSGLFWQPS
Outline: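 A Perkin Elmer Caliper/LabChip EZ Reader (Waltham, MA) platform served as the basis for this CDK7 kinase inhibition assay. The work was carried out by Biortus Biosciences, located in Jiangyin, Jiangsu Province, P.R. of China. Each CDK studied had its own kinase assay, and compounds were evaluated for their ability to block CDK7 activity.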

[5] = target: CDK2/Cyclin E1 complex (Homo sapiens, UniProt P24941); test: CDK2 inhibition assay (Caliper/LabChip EZ Reader kinase assay); assay type: biochemical; conditions: Table 1; CDK2/Cyclin E1 0.5 nM, ATP 2 mM, 35 min at 27° C.
Outline: as §1

[6] = test system: HCC70 cells; test: Inhibition of proliferation of HCC70 cells (CyQUANT Direct Cell Proliferation Assay, 72 hour); assay type: cell-based, human; conditions: read-out: Inhibition of Proliferation of HCC70 Cells (calculated IC50)
Experimental: HCC70 cells are a cell line derived from human triple negative breast cancer. […] Known CDK inhibitors dinaciclib or N-((1S,3R)-3-((5-chloro-4-(1H-indol-3-yl) pyrimidin-2-yl)amino)cyclohexyl)-5-((E)-4-(dimethylamino)but-2-enamido)picolinamide and triptolide were used as positive controls. […] The cells were cultured at 37° C. in a humidified chamber in the presence of 5% CO2. Proliferation assays were conducted over a 72 hour time period. CyQUANT® Direct Cell Proliferation Assay (Life Technologies, Chicago, IL USA) was used to assess the anti-proliferative effects of the compounds following manufacturer's directions and utilizing the reagents supplied with the CyQUANT® Direct Cell kit.

| SMILES | IC50 [2] [µM] | IC50 [3] [µM] | IC50 [4] [nM] | IC50 [5] [µM] | IC50 ([1]; Homo sapiens, A673, 72 h) [nM] | IC50 [1] [nM] | IC50 ([6]; Homo sapiens, HCC70, 72 h) [nM] | IC50 [6] [nM] |
| --- | --- | --- | --- | --- | --- | --- | --- | --- |
| CC1(C)CNC[C@@H](Nc2ncc(C(F)(F)F)c(-c3c[nH]c4ccccc34)n2)C1 [Compound 243, N-[(3S)-5,5-dimethyl-3-piperidyl]-4-(1H-indol-3-yl)-5-(trifluoromethyl) pyrimidin-2-amine] | 0.2 to 5 | 0.02 to 0.2 | < 20 | 0.2 to 5 | < 20 | – | – | – |
| Cc1nc(-c2ccc3c(-c4nc(N[C@H]5CCCNC5)ncc4C(F)(F)F)c[nH]c3c2)nn1C [Compound 245, 4-[6-(1,5-dimethyl-1,2,4-triazol-3-yl)-1H-indol-3-yl]-N-[(3S)-3-piperidyl]-5-(trifluoromethyl) pyrimidin-2-amine] | > 5 | 0.2 to 5 | < 20 | 0.2 to 5 | 20 to 200 | – | – | – |
| COC(C)c1cnc(N[C@H]2CCCNC2)nc1-c1c[nH]c2ccccc12 (stereo partly drawn) [Compound 247] | > 5 | > 5 | 200 to 5000 | > 5 | 200 to 5000 | – | – | – |
| N#Cc1cn(-c2ccc3c(-c4nc(NC5CCCNC5)ncc4C(F)(F)F)c[nH]c3c2)cn1 (stereo not drawn) [Compound 249] | > 5 | 0.2 to 5 | < 20 | > 5 | 20 to 200 | – | – | – |
| CNC(=O)[C@@H]1CNC[C@@H](Nc2ncc(C(F)(F)F)c(-c3c[nH]c4ccccc34)n2)C1 [Compound 256] | > 5 | 0.2 to 5 | 20 to 200 | 0.2 to 5 | – | 200 to 5000 | – | – |
| N#Cc1ccc2c(-c3nc(N[C@H]4CCCNC4)ncc3C(F)(F)F)c[nH]c2c1C#N [Compound 258, 3-[2-[[(3S)-3-piperidyl]amino]-5-(trifluoromethyl)pyrimidin-4-yl]-1H-indole-6,7-dicarbonitrile] | 0.2 to 5 | 0.2 to 5 | < 20 | 0.2 to 5 | 20 to 200 | – | – | – |
| FC(F)(F)c1cnc(N[C@H]2CNC[C@@H](c3nnc4ccccn34)C2)nc1-c1c[nH]c2ccccc12 [Compound 268] | > 5 | 0.2 to 5 | 200 to 5000 | > 5 | – | 200 to 5000 | – | – |
| CCc1cnc(N[C@H]2CCCNC2)nc1-c1c[nH]c2cc(S(C)(=O)=O)ccc12 [Compound 271] | > 5 | > 5 | 20 to 200 | > 5 | 200 to 5000 | – | – | – |
| CSc1cnc(N[C@H]2CCCNC2)nc1-c1c[nH]c2cc(C#N)ccc12 [Compound 272, 3-[5-methylsulfanyl-2-[[(3S)-3-piperidyl]amino]pyrimidin-4-yl]-1H-indole-6-carbonitrile] | 0.2 to 5 | 0.2 to 5 | < 20 | 0.2 to 5 | 20 to 200 | – | – | – |
| CCc1cnc(N[C@H]2CCCNC2)nc1-c1n[nH]c2cc(C#N)ccc12 [Compound 275, (S)-3-(5-ethyl-2-(piperidin-3-ylamino)pyrimidin-4-yl)-1H-indazole-6-carbonitrile] | 0.2 to 5 | 0.2 to 5 | < 20 | 0.2 to 5 | 20 to 200 | – | – | – |
| FC(F)(F)c1cnc(N[C@H]2CCCNC2)nc1-c1c[nH]c2cc(-c3cc[nH]n3)ccc12 [Compound 291, N-[(3S)-3-piperidyl]-4-[6-(1H-pyrazol-3-yl)-1H-indol-3-yl]-5-(trifluoromethyl) pyrimidin-2-amine] | 0.2 to 5 | 0.2 to 5 | 20 to 200 | > 5 | – | 20 to 200 | – | – |
| N#Cc1cc(-c2ccc3c(-c4nc(N[C@H]5CCCNC5)ncc4C(F)(F)F)c[nH]c3c2)ccc1O [Compound 315] | – | 0.2 to 5 | 20 to 200 | – | – | – | – | 1000 to 5000 |
| FC(F)(F)c1cc2[nH]cc(-c3ccc4c(-c5nc(N[C@H]6CCCNC6)ncc5C(F)(F)F)c[nH]c4c3)c2cn1 [Compound 319] | – | 0.2 to 5 | 20 to 200 | – | – | – | – | 1000 to 5000 |
| Cn1cc(-c2ccc3c(-c4nc(N[C@H]5CCCNC5)ncc4C(F)(F)F)c[nH]c3c2)c2cnc(C(F)(F)F)cc21 [Compound 320] | – | 0.2 to 5 | 20 to 200 | – | – | – | 1000 to 5000 | – |
| OCCc1cccc(-c2ccc3c(-c4nc(N[C@H]5CCCNC5)ncc4C(F)(F)F)c[nH]c3c2)c1 [Compound 324] | – | 0.2 to 5 | 20 to 200 | – | – | – | – | 100 to 1000 |
| FC(F)(F)c1cnc(N[C@H]2CCCNC2)nc1-c1c[nH]c2cc(-c3ccc4ccncc4c3)ccc12 [Compound 325] | – | 0.2 to 5 | 20 to 200 | – | – | – | – | 100 to 1000 |
| NS(=O)(=O)c1cccc(-c2ccc3c(-c4nc(N[C@H]5CCCNC5)ncc4C(F)(F)F)c[nH]c3c2)c1 [Compound 326] | – | 0.2 to 5 | 20 to 200 | – | – | – | – | 100 to 1000 |
| CCOc1ccccc1-c1ccc2c(-c3nc(NC4CCCNC4)ncc3C(F)(F)F)c[nH]c2c1 (stereo not drawn) [Compound 327] | – | 0.2 to 5 | 20 to 200 | – | – | – | 100 to 1000 | – |
| FC(F)(F)c1cnc(N[C@H]2CCCNC2)nc1-c1c[nH]c2cc(-c3ccc4cn[nH]c4c3)ccc12 [Compound 329] | – | 0.2 to 5 | 20 to 200 | – | – | – | 100 to 1000 | – |

The next lines start with results.

| IC50 [2] [µM] | IC50 [3] [µM] | IC50 [4] [nM] | IC50 [5] [µM] | SMILES | IC50 ([1]; Homo sapiens, A673, 72 h) [nM] | IC50 [1] [nM] | IC50 ([6]; Homo sapiens, HCC70, 72 h) [nM] | IC50 [6] [nM] |
| --- | --- | --- | --- | --- | --- | --- | --- | --- |
| 0.2 to 5 | 0.2 to 5 | < 20 | 0.2 to 5 | FC1(F)CNC[C@@H](Nc2ncc(C(F)(F)F)c(-c3c[nH]c4ccccc34)n2)C1 [Compound 236, N-[(3S)-5,5-difluoro-3-piperidyl]-4-(1H-indol-3-yl)-5-(trifluoromethyl) pyrimidin-2-amine] | 20 to 200 | – | – | – |
| 0.2 to 5 | 0.2 to 5 | 20 to 200 | > 5 | CC(C)(O)CCc1ccc2c(-c3nc(N[C@H]4CCCNC4)ncc3C(F)(F)F)c[nH]c2c1 [Compound 242, 2-methyl-4-[3-[2-[[(3S)-3-piperidyl]amino]-5-(trifluoromethyl)pyrimidin-4-yl]-1H-indol-6-yl] butan-2-ol] | 20 to 200 | – | – | – |
| > 5 | 0.2 to 5 | 200 to 5000 | > 5 | CC(C)C1CCC(Nc2ncc(C(F)(F)F)c(-c3c[nH]c4ccccc34)n2)CN1 (stereo not drawn) [Compound 260] | 200 to 5000 | – | – | – |
| 0.2 to 5 | 0.2 to 5 | < 20 | 0.2 to 5 | CCc1cnc(N[C@H]2CCCNC2)nc1-c1n[nH]c2ncccc12 [Compound 262, 5-ethyl-N-[(3S)-3-piperidyl]-4-(1H-pyrazolo[3,4-b]pyridin-3-yl)pyrimidin-2-amine] | 20 to 200 | – | – | – |
| 0.2 to 5 | 0.2 to 5 | 200 to 5000 | 0.2 to 5 | CS(=O)(=O)c1cccn2c([C@H]3CCC[C@@H](Nc4ncc(C(F)(F)F)c(-c5c[nH]c6ccccc56)n4)C3)nnc12 [Compound 265, 4-(1H-indol-3-yl)-N-[(1R,3S)-3-(8-methylsulfonyl-[1,2,4]triazolo [4,3-a]pyridin-3-yl)cyclohexyl]-5-(trifluoromethyl) pyrimidin-2-amin] | 20 to 200 | – | – | – |
| 0.2 to 5 | 0.2 to 5 | < 20 | 0.2 to 5 | CCS(=O)(=O)c1ccc2c(-c3nc(N[C@H]4CCCNC4)ncc3C(F)(F)F)c[nH]c2c1 [Compound 274] | 20 to 200 | – | – | – |
| > 5 | > 5 | 20 to 200 | > 5 | CC(C)c1cnc(N[C@H]2CCCNC2)nc1-c1n[nH]c2nc(C#N)ccc12 [Compound 276, (S)-3-(5-isopropyl-2-(piperidin-3-ylamino)pyrimidin-4-yl)-1H-pyrazolo[3,4-b]pyridine-6-carbonitrile] | 200 to 5000 | – | – | – |
| – | 0.2 to 5 | 20 to 200 | – | Nc1nc2c(-c3ccc4c(-c5nc(N[C@H]6CCCNC6)ncc5C(F)(F)F)c[nH]c4c3)cccc2s1 [Compound 312] | – | – | 100 to 1000 | – |
| – | 0.2 to 5 | 20 to 200 | – | FC(F)(F)c1cnc(NC2CCCNC2)nc1-c1c[nH]c2cc(C=Cc3ccccc3)ccc12 (stereo not drawn) [Compound 317] | – | – | 1000 to 5000 | – |
| – | 0.2 to 5 | < 20 | – | Nc1ncc2cccc(-c3ccc4c(-c5nc(N[C@H]6CCCNC6)ncc5C(F)(F)F)c[nH]c4c3)c2n1 [Compound 322] | – | – | – | 100 to 1000 |
